From paper PMC9250534, “Synthesis and direct assay of large macrocycle diversities by combinatorial late-stage modification at picomole scale” (Nature Communications, 2022)

Target: MDM2 (Homo sapiens, UniProt Q00987)
Test: MDM2 binding screen: displacement of fluorescent p53 peptide probe FP53 (fluorescence polarization)
Conditions: crude macrocycle reactions; for fraction fluorescent probe displaced, Screen: initial screen
Outline: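 Single-point screen: one fluorescence anisotropy reading at 25 °C (485 nm excitation, 535 nm emission) per macrocycle. Crude macrocycle reactions, final 10 µM, were scored for displacing the fluorescent p53 peptide from human MDM2.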

Sequence of MDM2 (Q00987 whole entry): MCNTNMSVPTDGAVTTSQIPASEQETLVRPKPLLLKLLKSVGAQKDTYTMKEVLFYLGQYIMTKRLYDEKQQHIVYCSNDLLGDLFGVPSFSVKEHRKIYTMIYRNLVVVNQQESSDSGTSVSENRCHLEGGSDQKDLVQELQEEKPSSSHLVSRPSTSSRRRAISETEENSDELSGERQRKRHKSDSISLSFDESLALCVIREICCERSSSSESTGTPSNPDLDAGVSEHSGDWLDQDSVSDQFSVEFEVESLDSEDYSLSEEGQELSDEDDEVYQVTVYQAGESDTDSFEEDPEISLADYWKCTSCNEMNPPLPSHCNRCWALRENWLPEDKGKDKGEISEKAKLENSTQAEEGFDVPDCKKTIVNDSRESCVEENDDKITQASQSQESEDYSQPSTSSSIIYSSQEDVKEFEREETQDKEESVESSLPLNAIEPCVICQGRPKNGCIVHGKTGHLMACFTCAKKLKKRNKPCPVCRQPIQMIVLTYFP

| SMILES | fraction fluorescent probe displaced, Screen (Acid 25) | fraction fluorescent probe displaced, Replicate (Acid 25) | fraction fluorescent probe displaced, Screen (Acid 91) | fraction fluorescent probe displaced, Replicate (Acid 91) | further results |
| --- | --- | --- | --- | --- | --- |
| O=C(NCC1NC(=O)C(Cc2c[nH]c3ccccc23)NC(=O)C2CCCN(C2)C(=O)CCSSCCNC1=O)c1ccc(Cl)cc1 (stereo not drawn) [X B4 W D3 Acid 25] | 0.09 | 0.22 | – | – | – |
| O=C(/C=C/c1ccccc1)NC[C@@H]1NC(=O)[C@H](Cc2c[nH]c3ccccc23)NC(=O)[C@H]2CCCN(C2)C(=O)CCSSCCNC1=O [X B4 W D3 Acid 91] | – | – | 0.16 | 0.09 | – |
| O=C(N[C@H]1C[C@H]2C(=O)NCCSSCCC(=O)N3CCC[C@@H](C3)C(=O)N[C@@H](Cc3c[nH]c4ccccc34)C(=O)N2C1)c1ccc(Cl)s1 [X B4 W D5 Acid 14] | – | – | – | – | fraction fluorescent probe displaced, Screen (Acid 14): 0.08; fraction fluorescent probe displaced, Replicate (Acid 14): -0.03 |
| O=C(NC1CC2C(=O)NCCSSCCC(=O)N3CCCC(C3)C(=O)NC(Cc3c[nH]c4ccccc34)C(=O)N2C1)c1ccc(Cl)cc1 (stereo not drawn) [X B4 W D5 Acid 25] | 0.15 | 0.20 | – | – | – |
| O=C(C=Cc1ccccc1)NC1CC2C(=O)NCCSSCCC(=O)N3CCCC(C3)C(=O)NC(Cc3c[nH]c4ccccc34)C(=O)N2C1 (stereo not drawn) [X B4 W D5 Acid 91] | – | – | 0.0563 | 0.12 | – |
| O=C1N[C@@H](Cc2c[nH]c3ccccc23)C(=O)NC2(CCN(C(=O)c3ccc(Cl)s3)CC2)C(=O)NCCSSCCC(=O)N2CCC[C@H]1C2 [X B4 W D6 Acid 14] | – | – | – | – | fraction fluorescent probe displaced, Screen (Acid 14): 0.08; fraction fluorescent probe displaced, Replicate (Acid 14): 0.22 |
| O=C1N[C@@H](Cc2c[nH]c3ccccc23)C(=O)NC2(CCN(C(=O)c3ccc(Cl)cc3)CC2)C(=O)NCCSSCCC(=O)N2CCC[C@H]1C2 [X B4 W D6 Acid 25] | 0.22 | 0.20 | – | – | – |
| O=C1NC(Cc2c[nH]c3ccccc23)C(=O)N2CCN(C(=O)c3ccc(Cl)s3)CC2C(=O)NCCSSCCC(=O)N2CCCC1C2 (stereo not drawn) [X B4 W D7 Acid 14] | – | – | – | – | fraction fluorescent probe displaced, Screen (Acid 14): 0.14; fraction fluorescent probe displaced, Replicate (Acid 14): 0.25 |
| O=C1NC(Cc2c[nH]c3ccccc23)C(=O)N2CCN(C(=O)c3ccc(Cl)cc3)CC2C(=O)NCCSSCCC(=O)N2CCCC1C2 (stereo not drawn) [X B4 W D7 Acid 25] | 0.25 | 0.17 | – | – | – |
| O=C1CCSSCCNC(=O)C(Cc2ccccc2)NC(=O)C(CNC(=O)c2ccc(Cl)s2)NC(=O)c2cccc(c2)CN1 (stereo not drawn) [X B5 D3 F Acid 14] | – | – | – | – | fraction fluorescent probe displaced, Screen (Acid 14): -0.00483; fraction fluorescent probe displaced, Replicate (Acid 14): 0.12 |
| O=C1CCSSCCNC(=O)[C@H](Cc2ccccc2)NC(=O)[C@H](CNC(=O)c2ccc(Cl)cc2)NC(=O)c2cccc(c2)CN1 [X B5 D3 F Acid 25] | 0.0244 | 0.10 | – | – | – |
| O=C(/C=C/c1ccccc1)NC[C@@H]1NC(=O)c2cccc(c2)CNC(=O)CCSSCCNC(=O)[C@H](Cc2ccccc2)NC1=O [X B5 D3 F Acid 91] | – | – | -0.05 | 0.0168 | – |
| O=C1CCSSCCNC(=O)[C@H](Cc2c[nH]c3ccccc23)NC(=O)[C@H](CNC(=O)c2ccc(Cl)cc2)NC(=O)c2cccc(c2)CN1 [X B5 D3 W Acid 25] | 0.25 | 0.30 | – | – | – |
| O=C(C=Cc1ccccc1)NCC1NC(=O)c2cccc(c2)CNC(=O)CCSSCCNC(=O)C(Cc2c[nH]c3ccccc23)NC1=O (stereo not drawn) [X B5 D3 W Acid 91] | – | – | 0.16 | 0.29 | – |
| O=C1CCSSCCNC(=O)C(Cc2ccccc2)NC(=O)C2CC(NC(=O)c3ccc(Cl)cc3)CN2C(=O)c2cccc(c2)CN1 (stereo not drawn) [X B5 D5 F Acid 25] | 0.13 | 0.05 | – | – | – |
| O=C(C=Cc1ccccc1)NC1CC2C(=O)NC(Cc3c[nH]c4ccccc34)C(=O)NCCSSCCC(=O)NCc3cccc(c3)C(=O)N2C1 (stereo not drawn) [X B5 D5 W Acid 91] | – | – | -0.13 | 0.0168 | – |
| O=C1CCSSCCNC(=O)C(Cc2ccccc2)NC(=O)C2(CCN(C(=O)c3ccc(Cl)s3)CC2)NC(=O)c2cccc(c2)CN1 (stereo not drawn) [X B5 D6 F Acid 14] | – | – | – | – | fraction fluorescent probe displaced, Screen (Acid 14): -0.0116; fraction fluorescent probe displaced, Replicate (Acid 14): 0.05 |
| O=C1CCSSCCNC(=O)[C@H](Cc2ccccc2)NC(=O)C2(CCN(C(=O)c3ccc(Cl)cc3)CC2)NC(=O)c2cccc(c2)CN1 [X B5 D6 F Acid 25] | 0.0462 | 0.07 | – | – | – |

| SMILES | fraction fluorescent probe displaced, Screen (Acid 25) | fraction fluorescent probe displaced, Replicate (Acid 25) | fraction fluorescent probe displaced, Screen (Acid 91) | fraction fluorescent probe displaced, Replicate (Acid 91) | further results |
| --- | --- | --- | --- | --- | --- |
| O=C1CCSSCCNC(=O)C(Cc2ccccc2)NC(=O)C2(CCN(C(=O)C=Cc3ccccc3)CC2)NC(=O)c2cccc(c2)CN1 (stereo not drawn) [X B5 D6 F Acid 91] | – | – | -0.10 | -0.08 | – |
| O=C1CCSSCCNC(=O)[C@H](Cc2c[nH]c3ccccc23)NC(=O)C2(CCN(C(=O)c3ccc(Cl)cc3)CC2)NC(=O)c2cccc(c2)CN1 [X B5 D6 W Acid 25] | 0.12 | 0.15 | – | – | – |
| O=C1CCSSCCNC(=O)C(Cc2c[nH]c3ccccc23)NC(=O)C2CN(C(=O)c3ccc(Cl)cc3)CCN2C(=O)c2cccc(c2)CN1 (stereo not drawn) [X B5 D7 W Acid 25] | 0.09 | 0.15 | – | – | – |
| O=C1CCSSCCNC(=O)C(Cc2c[nH]c3ccccc23)NC(=O)C2CN(C(=O)C=Cc3ccccc3)CCN2C(=O)c2cccc(c2)CN1 (stereo not drawn) [X B5 D7 W Acid 91] | – | – | -0.10 | -0.06 | – |
| O=C1CCSSCCNC(=O)[C@H](CNC(=O)c2ccc(Cl)s2)NC(=O)[C@H](Cc2ccccc2)NC(=O)c2cccc(c2)CN1 [X B5 F D3 Acid 14] | – | – | – | – | fraction fluorescent probe displaced, Screen (Acid 14): 0.053; fraction fluorescent probe displaced, Replicate (Acid 14): 0.0211 |
| O=C1CCSSCCNC(=O)[C@H](CNC(=O)c2ccc(Cl)cc2)NC(=O)[C@H](Cc2ccccc2)NC(=O)c2cccc(c2)CN1 [X B5 F D3 Acid 25] | 0.09 | 0.0465 | – | – | – |
| O=C(/C=C/c1ccccc1)NC[C@@H]1NC(=O)[C@H](Cc2ccccc2)NC(=O)c2cccc(c2)CNC(=O)CCSSCCNC1=O [X B5 F D3 Acid 91] | – | – | -0.05 | -0.00827 | – |
| O=C1CCSSCCNC(=O)[C@@H]2C[C@H](NC(=O)c3ccc(Cl)s3)CN2C(=O)[C@H](Cc2ccccc2)NC(=O)c2cccc(c2)CN1 [X B5 F D5 Acid 14] | – | – | – | – | fraction fluorescent probe displaced, Screen (Acid 14): 0.0241; fraction fluorescent probe displaced, Replicate (Acid 14): -0.00432 |
| O=C1CCSSCCNC(=O)[C@@H]2C[C@H](NC(=O)c3ccc(Cl)cc3)CN2C(=O)[C@H](Cc2ccccc2)NC(=O)c2cccc(c2)CN1 [X B5 F D5 Acid 25] | 0.0244 | 0.10 | – | – | – |
| O=C1CCSSCCNC(=O)C2(CCN(C(=O)c3ccc(Cl)cc3)CC2)NC(=O)C(Cc2ccccc2)NC(=O)c2cccc(c2)CN1 (stereo not drawn) [X B5 F D6 Acid 25] | 0.0244 | 0.0465 | – | – | – |
| O=C1CCSSCCNC(=O)C2CN(C(=O)C=Cc3ccccc3)CCN2C(=O)C(Cc2ccccc2)NC(=O)c2cccc(c2)CN1 (stereo not drawn) [X B5 F D7 Acid 91] | – | – | -0.05 | -0.06 | – |
| O=C1CCSSCCNC(=O)[C@H](CNC(=O)c2ccc(Cl)cc2)NC(=O)[C@H](Cc2c[nH]c3ccccc23)NC(=O)c2cccc(c2)CN1 [X B5 W D3 Acid 25] | 0.15 | 0.12 | – | – | – |
| O=C(/C=C/c1ccccc1)NC[C@@H]1NC(=O)[C@H](Cc2c[nH]c3ccccc23)NC(=O)c2cccc(c2)CNC(=O)CCSSCCNC1=O [X B5 W D3 Acid 91] | – | – | 0.16 | 0.12 | – |
| O=C(C=Cc1ccccc1)NC1CC2C(=O)NCCSSCCC(=O)NCc3cccc(c3)C(=O)NC(Cc3c[nH]c4ccccc34)C(=O)N2C1 (stereo not drawn) [X B5 W D5 Acid 91] | – | – | 0.00268 | 0.12 | – |
| O=C1CCSSCCNC(=O)C2(CCN(C(=O)c3ccc(Cl)s3)CC2)NC(=O)C(Cc2c[nH]c3ccccc23)NC(=O)c2cccc(c2)CN1 (stereo not drawn) [X B5 W D6 Acid 14] | – | – | – | – | fraction fluorescent probe displaced, Screen (Acid 14): 0.20; fraction fluorescent probe displaced, Replicate (Acid 14): 0.33 |
| O=C1CCSSCCNC(=O)C2(CCN(C(=O)c3ccc(Cl)cc3)CC2)NC(=O)[C@H](Cc2c[nH]c3ccccc23)NC(=O)c2cccc(c2)CN1 [X B5 W D6 Acid 25] | 0.09 | 0.28 | – | – | – |
| O=C1CCSSCCNC(=O)C2(CCN(C(=O)/C=C/c3ccccc3)CC2)NC(=O)[C@H](Cc2c[nH]c3ccccc23)NC(=O)c2cccc(c2)CN1 [X B5 W D6 Acid 91] | – | – | 0.16 | 0.17 | – |
| O=C1CCSSCCNC(=O)C2CN(C(=O)c3ccc(Cl)cc3)CCN2C(=O)C(Cc2c[nH]c3ccccc23)NC(=O)c2cccc(c2)CN1 (stereo not drawn) [X B5 W D7 Acid 25] | 0.12 | 0.07 | – | – | – |
